In patent publication US10301295B2, “Herbicidal compounds” (Syngenta Participations AG, priority 2014, dated 2019):
Read-outs that look alike come from different tables or passages of the source.

How the values were obtained:
Format in all cases: in vivo
[1] = system: Alopecurus myosuroides (ALOMY); experiment: Glasshouse assay for herbicidal activity, pre-/post-emergence (percentage phytotoxicity); details: Alopecurus myosuroides, Rate 250 g/ha, 100%=total damage, 0%=no damage
In short: (§1)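 Test plants are sown in pots of standard soil, held one day for pre-emergence or about twelve days for post-emergence, then treated. They grow on under glasshouse control with twice-daily watering, and damage is rated by eye as a percentage at 15 (post) or 20 (pre) days after application.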

[2] = system: Avena fatua (AVEFA); experiment: as above; details: Avena fatua, Rate 250 g/ha, 100%=total damage, 0%=no damage
In short: as §1

[3] = system: Echinochloa crus-galli (ECHCG); experiment: as above; details: Echinochloa crus-galli, Rate 250 g/ha, 100%=total damage, 0%=no damage
In short: as §1

[4] = system: Lolium perenne (LOLPE); experiment: as above; details: Lolium perenne, Rate 250 g/ha, 100%=total damage, 0%=no damage
In short: as §1

[5] = system: wheat; experiment: Post-emergence herbicidal activity against cereal crops (wheat) +/- safener, crop selectivity; details: 100%=total damage to plant, 0%=no damage; for Post-emergence herbicidal activity against wheat (percentage phytotoxicity), +CQC: 250 g/ha, plus safener cloquintocet-mexyl (CQC) applied at 50 g/ha; for percent phytotoxicity (crop damage) to wheat at 250 g/ha: Triticum aestivum, 360 h, without safener, read-out: Post-emergence herbicidal activity against wheat (percentage phytotoxicity), Wheat - CQC
In short: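 Test plants raised in pots in a glasshouse (24/18 °C warm or 20/16 °C cool species day/night, 16 h light, 65% humidity) and treated post-emergence about 12 days after sowing. Visual percentage phytotoxicity scored 15 days after application (0% = no damage, 100% = total damage).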

[6] = 360 h, post-emergence, visual assessment 15 DAA, read-out: Post-emergence herbicidal activity (percentage phytotoxicity), ALOMY POST
[7] = 480 h, pre-emergence, visual assessment 20 DAA, read-out: Pre-emergence herbicidal activity (percentage phytotoxicity), ALOMY PRE
[8] = post-emergence, 360 h, post-emergence, visual assessment 15 DAA, read-out: Post-emergence herbicidal activity (percentage phytotoxicity), AVEFA POST
[9] = pre-emergence, 480 h, pre-emergence, visual assessment 20 DAA, read-out: Pre-emergence herbicidal activity (percentage phytotoxicity), AVEFA PRE
[10] = post-emergence, 360 h, post-emergence, visual assessment 15 DAA, read-out: Post-emergence herbicidal activity (percentage phytotoxicity), ECHCG POST
[11] = pre-emergence, 480 h, pre-emergence, visual assessment 20 DAA, read-out: Pre-emergence herbicidal activity (percentage phytotoxicity), ECHCG PRE
[12] = post-emergence, 360 h, post-emergence, visual assessment 15 DAA, read-out: Post-emergence herbicidal activity (percentage phytotoxicity), LOLPE POST
[13] = pre-emergence, 480 h, pre-emergence, visual assessment 20 DAA, read-out: Pre-emergence herbicidal activity (percentage phytotoxicity), LOLPE PRE

| Structure (SMILES) | pest or weed control at 250 g/ha [1, 6] | pest or weed control at 250 g/ha [1, 7] | pest or weed control at 250 g/ha [2, 8] | pest or weed control at 250 g/ha [2, 9] | pest or weed control at 250 g/ha [3, 10] | pest or weed control at 250 g/ha [3, 11] | pest or weed control at 250 g/ha [4, 12] | pest or weed control at 250 g/ha [4, 13] | Post-emergence herbicidal activity against wheat (percentage phytotoxicity), +CQC [5] | percent phytotoxicity (crop damage) to wheat at 250 g/ha [5] |
| --- | --- | --- | --- | --- | --- | --- | --- | --- | --- | --- |
| Cc1cc(C)c(C2C(=O)CC(CCNC(=O)Nc3cc(C(F)(F)F)ccn3)C2=O)c(C)c1.Cl (stereo not drawn) [Compound A2, 1-[2-[2,4-dioxo-3-(2,4,6-trimethylphenyl)cyclopentyl]ethyl]-3-[4-(trifluoromethyl)-2-pyridyl]urea] | 80% | 70% | 100% | 80% | 100% | 90% | 100% | 80% | 80% | 80% |
| Cc1cc(C)c(C2C(=O)CC(CCNS(=O)(=O)c3ccc(F)c(Cl)c3)C2=O)c(C)c1 (stereo not drawn) [Compound A75] | 60% | 70% | 80% | 60% | 30% | 70% | 70% | 80% | 0% | 0% |
| Cc1cc(C)c(C2C(=O)CC(CCNS(=O)(=O)c3ccccc3F)C2=O)c(C)c1 (stereo not drawn) [Compound A76] | 20% | 30% | 20% | 0% | 40% | 40% | 60% | 70% | 0% | 0% |
| Cc1cc(C)c(C2C(=O)CC(CCNC(=S)Nc3ccccc3F)C2=O)c(C)c1 (stereo not drawn) [Compound A88] | 0% | 0% | 0% | 0% | 0% | 40% | 60% | 40% | 0% | 0% |
| Cc1cc(C)c(C2C(=O)CC(CCNS(=O)(=O)c3ccccc3C(F)(F)F)C2=O)c(C)c1 (stereo not drawn) [Compound A86] | 50% | 20% | 0% | 20% | 30% | 60% | 30% | 60% | 0% | 20% |
| CC#Cc1cc(C)c(C2C(=O)CC(CCNC(=O)N(C)c3ccccn3)C2=O)c(C)c1.Cl (stereo not drawn) [Compound A22] | 80% | 70% | 100% | 100% | 100% | 100% | 90% | 100% | 30% | 80% |
| Cc1cc(C)c(C2C(=O)CC(CCNS(=O)(=O)c3ccc(C(F)(F)F)cc3)C2=O)c(C)c1 (stereo not drawn) [Compound A74] | 50% | 70% | – | 90% | 60% | 70% | 60% | 70% | 0% | 10% |
| Cc1cc(-n2cc(Cl)cn2)cc(C)c1C1C(=O)CC(CCNC(=O)NOC(C)(C)C)C1=O (stereo not drawn) [Compound A25] | 70% | 30% | 80% | 0% | 90% | 50% | 20% | 30% | 0% | 60% |
| Cc1cc(-n2cc(Cl)cn2)cc(C)c1C1C(=O)CC(CCNC(=O)C2=NOC(C)(C)C2)C1=O (stereo not drawn) [Compound A43] | 90% | 90% | 100% | 90% | 100% | 90% | 100% | 90% | 50% | 90% |
| Cc1cc(-n2cc(Cl)cn2)cc(C)c1C1C(=O)CC(CCNC(=O)N(C)c2ccccn2)C1=O (stereo not drawn) [Compound A20] | 80% | 20% | 100% | 80% | 100% | 100% | 90% | 80% | 0% | 80% |
| Cc1cc(C)c(C2C(=O)CC(CCNC(=O)N3CCOCC3)C2=O)c(C)c1 (stereo not drawn) [Compound A47] | 60% | 60% | 70% | 0% | 60% | 80% | 30% | 50% | 0% | 50% |
| Cc1cc(C)c(C2C(=O)CC(CCNc3nc4ccc(Cl)cc4o3)C2=O)c(C)c1.Cl (stereo not drawn) [Compound A35] | 90% | 70% | 70% | 60% | 100% | 80% | 100% | 100% | 60% | 80% |
| Cc1cc(C)c(C2C(=O)CC(CCNC(=O)N(C)c3ccccn3)C2=O)c(C)c1 (stereo not drawn) [Compound A11] | 90% | 100% | 90% | 90% | 90% | 100% | 100% | 100% | 70% | 80% |
| Cc1cc(C)c(C2C(=O)CC(CCNC(=O)N(C)C(C)(C)C)C2=O)c(C)c1 (stereo not drawn) [Compound A14] | 80% | 90% | 90% | 90% | 100% | 100% | 100% | 100% | 30% | 60% |
| Cc1cc(C)c(C2C(=O)CC(CCNC(=O)NC(=O)c3ccccc3Cl)C2=O)c(C)c1 (stereo not drawn) [Compound A49] | 100% | 90% | 100% | 80% | 100% | 100% | 100% | 90% | 90% | 90% |
| Cc1cc(C)c(C2C(=O)CC(CCNC(=O)NC(=O)c3cc(F)c(Cl)cc3Cl)C2=O)c(C)c1 (stereo not drawn) [Compound A65] | 100% | 80% | 90% | 70% | 80% | 70% | 100% | 80% | 40% | 80% |
